Converted amounts (≈) assume the structure as drawn.
Columns and labels:
SK-MEL-2 = experiment: cells; conditions: Homo sapiens, SK-MEL-2, 48 h; for CC50: read-out: LC50
IGROV1 = experiment: cells; conditions: Homo sapiens, IGROV-1, 48 h; for CC50: read-out: LC50
K-562 = experiment: cells; conditions: Homo sapiens, K562, 48 h; for GI50: K-562, 48 h; for CC50: read-out: LC50
[1] = test system: Trichophyton mentagrophytes (CCC 202-2000); experiment: Antifungal broth microdilution (CLSI); format: cell-based; conditions: Tm: Trichophyton mentagrophytes
Description: Several of the obtained triazine derivatives were evaluated against sensitive fungal species comprising of two yeasts (Candida albicans (ATCC 10231), Cryptococcus neoformans (ATCC 32264)), three dermatophytes (Microsporum gypseum (CCC 115), Trichophyton rubrum (CCC 134-2000), Trichophyton mentagrophytes (CCC 202-2000)), and three Aspergillus fungi ((A. [NT] 26934), A. niger (ATCC 9029), and A. flavus (ATCC 9170)). […] Broth microdilution techniques were performed in 96-well microplates according to the Reference Method for Broth Dilution Antifungal Susceptibility Testing of Yeasts, document M27-A3 [86] and of Filamentous Fungi […]-A8 [87]. […] An inoculum suspension (100 μL) was added to each well (final well volume = 200 μL). One growth control well (containing medium, inoculum, and the same amount of DMSO as used for each compound) and one sterility control well (sample, medium, and sterile water instead of inoculum) were included for each fungus tested. Microtiter plates were incubated in a dark, humid chamber at 30 °C for the time necessary for each fungus. Amphotericin B, Terbinafine, Fluconazole and Itraconazole were used as a positive control. The tests were performed in triplicate.

TK-10 = experiment: cells; conditions: Homo sapiens, TK-10, 48 h; for CC50: read-out: LC50
OVCAR-5 = experiment: cells; conditions: Homo sapiens, OVCAR-5, 48 h; for CC50: read-out: LC50
T-47D = experiment: cells; conditions: Homo sapiens, T47D, 48 h; for CC50: read-out: LC50
NCI/ADR-RES = experiment: cells; conditions: Homo sapiens, 48 h; for CC50: read-out: LC50
MDA-MB-435 = experiment: cells; conditions: Homo sapiens, MDA-MB-435, 48 h; for CC50: read-out: LC50
SR = experiment: cells; conditions: Homo sapiens, 48 h
SN12C = experiment: cells; conditions: Homo sapiens, 48 h
SK-OV-3 = experiment: cells; conditions: Homo sapiens, SK-OV-3, 48 h; for CC50: read-out: LC50
MCF7 = experiment: cells; conditions: Homo sapiens, MCF7, 48 h; for CC50: read-out: LC50
CCRF-CEM = experiment: cells; conditions: Homo sapiens, 48 h; for CC50: read-out: LC50
NCI-H522 = experiment: cells; conditions: Homo sapiens, NCI-H522, 48 h; for CC50: read-out: LC50
CAKI-1 = experiment: cells; conditions: Homo sapiens, CAKI-1, 48 h; for CC50: read-out: LC50
SK-MEL-28 = experiment: cells; conditions: Homo sapiens, SK-MEL-28, 48 h; for CC50: read-out: LC50
MALME-3M = experiment: cells; conditions: Homo sapiens, 48 h; for CC50: read-out: LC50
DU-145 = experiment: cells; conditions: Homo sapiens, DU-145, 48 h; for CC50: read-out: LC50
[2] = Hemolytic activity, spectrophotometric; format: cell-based, human; conditions: human, human red blood cells (huRBC), 5% hematocrit, 200 μg/mL, 37 °C
OVCAR-8 = experiment: cells; conditions: Homo sapiens, OVCAR-8, 48 h; for CC50: read-out: LC50
SW-620 = experiment: cells; conditions: Homo sapiens, SW-620, 48 h; for CC50: read-out: LC50
[3] = test system: M. tuberculosis ATCC 27294; experiment: Antitubercular broth microdilution MIC; format: cell-based; conditions: Mycobacterium tuberculosis; M. tuberculosis ATCC 27294 (H37Rv); read-out: Minimum inhibitory concentration (MIC)
HL-60(TB) = experiment: cells; conditions: Homo sapiens, HL-60, 48 h; for CC50: read-out: LC50
NCI-H460 = experiment: cells; conditions: Homo sapiens, NCI-H460, 48 h; for CC50: read-out: LC50
KM12 = experiment: cells; conditions: Homo sapiens, KM12, 48 h; for CC50: read-out: LC50
OVCAR-4 = experiment: cells; conditions: Homo sapiens, OVCAR-4, 48 h; for CC50: read-out: LC50

With `COc1ccc(/C=C/C(=O)c2ccc(S(=O)(=O)NCCNc3nc(Nc4ccc(F)cc4)nc(N(C)C)n3)cc2)cc1` [24c] the GI50 (SK-MEL-2) was 8.1 µM, the CC50 (SK-MEL-2) was 53.4 µM and the GI50 (IGROV1) was 10.8 µM. For the same compound, the CC50 (IGROV1) was over 100 µM, the GI50 (K-562) was 3.99 µM and the CC50 (K-562) was over 100 µM. It also gave an MIC [1] of over 250 µg/mL, a GI50 (TK-10) of 8.09 µM and a CC50 (TK-10) of over 100 µM. It also gave a GI50 (OVCAR-5) of 8.43 µM, a CC50 (OVCAR-5) of over 100 µM and a GI50 (T-47D) of 3.78 µM. The CC50 (T-47D) was over 100 µM, the GI50 (NCI/ADR-RES) was 5.66 µM and the CC50 (NCI/ADR-RES) was over 100 µM. The GI50 (MDA-MB-435) was 5.47 µM, the CC50 (MDA-MB-435) was 79.6 µM and the GI50 (SR) was 2.97 µM. It also gave a CC50 (SR; read-out: LC50) of over 100 µM, a GI50 (SN12C) of 3.6 µM and a CC50 (SN12C; read-out: LC50) of 44.5 µM. It also gave a GI50 (SK-OV-3) of 13.9 µM, a CC50 (SK-OV-3) of over 100 µM and a GI50 (MCF7) of 1.93 µM. The CC50 (MCF7) was 46.1 µM, the GI50 (CCRF-CEM) was 4.09 µM and the CC50 (CCRF-CEM) was over 100 µM. It also gave a GI50 (NCI-H522) of 2.55 µM, a CC50 (NCI-H522) of 67.1 µM and a GI50 (CAKI-1) of 3.34 µM. The CC50 (CAKI-1) was over 100 µM, the GI50 (SK-MEL-28) was 5.23 µM and the CC50 (SK-MEL-28) was 47.3 µM. It also gave a GI50 (MALME-3M) of 10.6 µM, a CC50 (MALME-3M) of over 100 µM and a GI50 (DU-145) of 7.54 µM. For the same compound, the CC50 (DU-145) was over 100 µM, the hemolysis at 24 h, 200 µg/mL [2] was 0.1% and the GI50 (OVCAR-8) was 9.51 µM. It also gave a CC50 (OVCAR-8) of over 100 µM, a GI50 (SW-620) of 5.42 µM and a CC50 (SW-620) of 52.3 µM. It also gave an MIC [3] of 25 µg/mL (≈ 42.3 µM), a GI50 (HL-60(TB)) of 3.6 µM and a CC50 (HL-60(TB)) of over 100 µM. For the same compound, the GI50 (NCI-H460) was 4.11 µM, the CC50 (NCI-H460) was over 100 µM and the GI50 (KM12) was 4.01 µM. For the same compound, the CC50 (KM12) was 72 µM, the GI50 (OVCAR-4) was 4.12 µM and the CC50 (OVCAR-4) was over 100 µM.

Work on `CN(C)c1nc(NCCNS(=O)(=O)c2ccc(C3=Nc4c(N)nc(N)nc4NC(c4ccc(C(F)(F)F)cc4)C3)cc2)nc(Nc2ccc(F)cc2)n1` (centres unmarked) [31g] yielded a GI50 (SK-MEL-2) of 10.8 µM, a CC50 (SK-MEL-2) of 24.7 µM and a GI50 (IGROV1) of 11.2 µM. The CC50 (IGROV1) was 86 µM, the GI50 (K-562) was 3.51 µM and the CC50 (K-562) was 86 µM. For the same compound, the MIC [1] was 62.5 µg/mL (≈ 83.1 µM), the GI50 (TK-10) was over 86 µM and the CC50 (TK-10) was over 86 µM. The GI50 (OVCAR-5) was 19.9 µM, the CC50 (OVCAR-5) was 86 µM and the GI50 (T-47D) was 12 µM. The CC50 (T-47D) was 86 µM, the GI50 (NCI/ADR-RES) was over 86 µM and the CC50 (NCI/ADR-RES) was over 86 µM. It also gave a GI50 (MDA-MB-435) of 9.13 µM, a CC50 (MDA-MB-435) of 86 µM and a GI50 (SK-OV-3) of over 86 µM. It also gave a CC50 (SK-OV-3) of over 86 µM, a GI50 (MCF7) of 2.87 µM and a CC50 (MCF7) of 21 µM. For the same compound, the GI50 (CCRF-CEM) was 3.24 µM, the CC50 (CCRF-CEM) was 86 µM and the GI50 (NCI-H522) was 17.8 µM. The CC50 (NCI-H522) was 44.8 µM, the GI50 (CAKI-1) was 36.8 µM and the CC50 (CAKI-1) was 86 µM. The GI50 (SK-MEL-28) was 15 µM, the CC50 (SK-MEL-28) was 86 µM and the GI50 (MALME-3M) was 11.3 µM. It also gave a CC50 (MALME-3M) of 24.2 µM, a GI50 (DU-145) of 38.5 µM and a CC50 (DU-145) of 86 µM. The hemolysis at 24 h, 200 µg/mL [2] was 3%, the GI50 (OVCAR-8) was 26.1 µM and the CC50 (OVCAR-8) was 86 µM. The GI50 (SW-620) was 14.3 µM, the CC50 (SW-620) was 86 µM and the MIC [3] was 5 µg/mL (≈ 6.65 µM). It also gave a GI50 (HL-60(TB)) of 4.07 µM, a CC50 (HL-60(TB)) of 86 µM and a GI50 (NCI-H460) of 5.49 µM. For the same compound, the CC50 (NCI-H460) was 86 µM, the GI50 (KM12) was 6.14 µM and the CC50 (KM12) was 86 µM. For the same compound, the GI50 (OVCAR-4) was 25 µM and the CC50 (OVCAR-4) was 86 µM.

Source: publication PMC11012124, “Synthesis of Novel Triazine-Based Chalcones and 8,9-dihydro-7H-pyrimido[4,5-b][1,4]diazepines as Potential Leads in the Search of Anticancer, Antibacterial and Antifungal Agents” (International Journal of Molecular Sciences, 2024)
